Columns and labels:
amphiregulin (AR) = assay: AR release into cell culture medium (sandwich ELISA); assay type: cell-based, human; conditions: SCC-9 cells; compared to LPA stimulation
Experimental: FIG. 1 GPCR stimulation of the EGFR Involves a ligand-dependent mechanism and is accompanied by AR release from the cell surface. a, EGFR signal transactivation requires metalloprotease activity and the EGFR extracellular domain. SCC-9 cells were pre-incubated with marimastat (BB2516, 10 μM; 20 min), anti-EGFR antibody ICR-3R (20 μg/mL; 60 min) or PTX (100 ng/mL; 18 h) and treated with LPA (10 μM), carbachol (Car, 1 mM), EGF (7.5 ng/mL) or pervanadate (PV, 1 mM) for 3 min. Following immunoprecipitation (IP) of cell extracts with anti-EGFR antibody proteins were immunoblotted (IB) with anti-phosphotyrosine antibody and re-probed with anti-EGFR antibody. b, Flow cytometric analysis of EGF-like precursor expression. SCC-9 cells were collected and stained for surface HB-EGF, TGFa or AR and analyzed by flow cytometry. Control cells were labelled with FITC-conjugated secondary antibody alone. c, LPA-induced proteolytic processing of proAR. […] Cells were collected and analyzed for cell surface AR density by flow cytometry. d, GPCR-induced proteolytic release of AR. […] Conditioned medium was collected and analyzed for total AR amount by ELISA. […]
Concentrations of free AR were determined by sandwich ELISA (R&D Systems) using monoclonal anti-AR capture antibody and biotinylated polyclonal detection antibody. […] Values are expressed as mean±s.d. of at least triplicate samples. […]

SCC-15 cells = assay: 3H-thymidine incorporation assay (DNA synthesis); assay type: cell-based, human; conditions: 18 h
From the text: (§1) FIG. 2 GPCR stimulation requires AR to trigger EGFR-dependent signals and biological responses. a, Blockade of EGF-like growth factor precursor expression by RNA interference (RNAi). SCC-9 cells were transfected with siRNA for proAR, proHB-EGF or proTGFα cultured for 2 days and analyzed for gene expression by RT-PCR as indicated or b, stimulated with LPA or carbachol and assayed for EGFR tyrosine phosphorylation content. c, Requirement of AR for LPA-induced cell migration. SIRNA-transfected SCC-9 cells were analyzed for transwell migration toward fibronectin as chemoattractant. […] Phosphorylated ERK1/2 was detected by immunoblotting total lysates with anti-phospho-ERK antibody. […] Quantitative analysis of ERK phosphorylation from three independent experiments (mean±s.d.). *, P<0.05 for the difference between LPA vs. inhibitors+LPA. […] Cells were then pulse-labelled with ^3H-thymidine and thymidine incorporation was measured by liquid-scintillation counting. Quantitative analysis from three independent experiments (mean±s.d.). *, P<0.001 for LPA vs. inhibitors+LPA.
For the ^3H-thymidine incorporation assay (5), SCC-15 cells were seeded into 12-well plates at 3×10^4 cells/well. […] After 18 h cells were pulse-labelled with ^3H-thymidine (1 μCi/ml) for 4 h, and thymidine incorporation was measured by trichloroacetic acid precipitation and subsequent liquid-scintillation counting.

EGFR = EGFR tyrosine phosphorylation / EGFR signal transactivation (IP with anti-EGFR, anti-phosphotyrosine immunoblot); assay type: cell-based, human; conditions: for GPCR-induced EGFR tyrosine phosphorylation (EGFR transactivation signal): SCC-9 cells, stimulation with LPA or carbachol
Experimental: (§2) FIG. 1 GPCR stimulation of the EGFR Involves a ligand-dependent mechanism and is accompanied by AR release from the cell surface. a, EGFR signal transactivation requires metalloprotease activity and the EGFR extracellular domain. SCC-9 cells were pre-incubated with marimastat (BB2516, 10 μM; 20 min), anti-EGFR antibody ICR-3R (20 μg/mL; 60 min) or PTX (100 ng/mL; 18 h) and treated with LPA (10 μM), carbachol (Car, 1 mM), EGF (7.5 ng/mL) or pervanadate (PV, 1 mM) for 3 min. Following immunoprecipitation (IP) of cell extracts with anti-EGFR antibody proteins were immunoblotted (IB) with anti-phosphotyrosine antibody and re-probed with anti-EGFR antibody. b, Flow cytometric analysis of EGF-like precursor expression. SCC-9 cells were collected and stained for surface HB-EGF, TGFa or AR and analyzed by flow cytometry. Control cells were labelled with FITC-conjugated secondary antibody alone. c, LPA-induced proteolytic processing of proAR. SCC-9 cells were pre-incubated with batimastat (BB94, 10 μM) or PTX and stimulated with LPA or TPA (1 μM) for 5 min. Cells were collected and analyzed for cell surface AR density by flow cytometry. d, GPCR-induced proteolytic release of AR. SCC-9 cells were pre-incubated with batimastat or vehicle followed by stimulation with agonists as indicated for 120 min. Conditioned medium was collected and analyzed for total AR amount by ELISA. Each bar is the average of triplicate values (mean±s.d.). *, P<0.03 for the difference between agonists vs. BB94+agonists.
FIG. 2 GPCR stimulation requires AR to trigger EGFR-dependent signals and biological responses. a, Blockade of EGF-like growth factor precursor expression by RNA interference (RNAi). SCC-9 cells were transfected with siRNA for proAR, proHB-EGF or proTGFα cultured for 2 days and analyzed for gene expression by RT-PCR as indicated or b, stimulated with LPA or carbachol and assayed for EGFR tyrosine phosphorylation content. c, Requirement of AR for LPA-induced cell migration. SIRNA-transfected SCC-9 cells were analyzed for transwell migration toward fibronectin as chemoattractant. Each bar is the average of quadruplicate values (mean±s.d.). *, P<0.001 for control siRNA+LPA vs. proAR siRNA+LPA. d, Effect of anti-AR neutralizing antibody and heparin on GPCR-induced EGFR and SHC tyrosine phosphorylation. […] Phosphorylated ERK1/2 was detected by immunoblotting total lysates with anti-phospho-ERK antibody. […] Quantitative analysis of ERK phosphorylation from three independent experiments (mean±s.d.). *, P<0.05 for the difference between LPA vs. inhibitors+LPA. […] Cells were then pulse-labelled with ^3H-thymidine and thymidine incorporation was measured by liquid-scintillation counting. Quantitative analysis from three independent experiments (mean±s.d.). *, P<0.001 for LPA vs. inhibitors+LPA. […]

proHB-EGF = assay: Flow cytometric analysis of proHB-EGF ectodomain cleavage; assay type: cell-based, human; conditions: HNSCC cells; data not shown
Experimental: (§3) ACS analysis was performed as described before (1). Cells were stained with ectodomain-specific antibodies against HB-EGF, AR (R&D Systems) or TGFa (Oncogene, Boston; Mass.). After washing with PBS, cells were incubated with FITC-conjugated secondary antibody and analyzed on a Becton Dickinson FACScalibur flow cytometer.

proTGFα = assay: Flow cytometric analysis of proTGFα ectodomain cleavage; assay type: cell-based, human; conditions: HNSCC cells; data not shown
Experimental: as §3

Akt/PKB = Akt/PKB phosphorylation (anti-phospho-Akt immunoblot); assay type: cell-based, human; conditions: head and neck cancer cells
proAR = assay: Flow cytometric analysis of cell surface proAR (proAR shedding); assay type: cell-based, human; conditions: for cell surface content of endogenous proAR after agonist treatment: head and neck cancer cells, LPA 10 μM
Experimental: as §2, §3

ERK1/2 = assay: ERK/MAPK activation (anti-phospho-ERK immunoblot); assay type: cell-based, human; conditions: SCC-9 and SCC-15 cells
From the text: as §1
Cells were lysed and proteins immunoprecipitated as described (13). […] Phosphotyrosine was detected with the 4G10 monoclonal antibody (UBI, Lake Placid, N.Y.). […]

TACE = TACE (Homo sapiens, UniProt P78536); conditions: reference (25); cited from earlier work
Sequence of TACE (P78536 215-824): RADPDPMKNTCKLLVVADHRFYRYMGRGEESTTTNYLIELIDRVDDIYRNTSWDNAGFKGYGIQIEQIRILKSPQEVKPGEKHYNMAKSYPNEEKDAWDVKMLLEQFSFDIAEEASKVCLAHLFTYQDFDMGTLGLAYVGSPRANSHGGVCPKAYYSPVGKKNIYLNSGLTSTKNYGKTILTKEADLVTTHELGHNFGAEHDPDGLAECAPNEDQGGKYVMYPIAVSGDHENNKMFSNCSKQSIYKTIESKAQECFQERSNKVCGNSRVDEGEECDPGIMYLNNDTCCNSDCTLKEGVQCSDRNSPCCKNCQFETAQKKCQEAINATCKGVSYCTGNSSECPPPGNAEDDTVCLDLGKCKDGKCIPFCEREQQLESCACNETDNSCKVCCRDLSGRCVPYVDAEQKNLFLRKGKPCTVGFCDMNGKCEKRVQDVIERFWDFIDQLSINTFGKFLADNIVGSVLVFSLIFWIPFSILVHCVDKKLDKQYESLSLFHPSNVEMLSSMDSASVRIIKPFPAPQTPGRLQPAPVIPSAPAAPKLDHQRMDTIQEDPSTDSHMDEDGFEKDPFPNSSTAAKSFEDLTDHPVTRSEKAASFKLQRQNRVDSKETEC

C[N+](C)(C)CCOC(N)=O [carbachol]
AR release in response to agonist (amphiregulin (AR)): substantially lower compared to LPA stimulation

COc1cc2ncnc(Nc3cccc(Cl)c3)c2cc1OC [tyrphostin AG1478]
DNA synthesis triggered by LPA (SCC-15 cells): decreased DNA synthesis by LPA to below basal level

CNC(=O)[C@@H](NC(=O)[C@H](CC(C)C)[C@H](O)C(=O)NO)C(C)(C)C [marimastat]
GPCR-induced EGFR tyrosine phosphorylation (EGFR transactivation signal) (EGFR): sensitive

lysophosphatidic acid [LPA]
proteolytic (ectodomain) cleavage of proHB-EGF by agonist (proHB-EGF): not able to induce | proteolytic (ectodomain) cleavage of proTGFα by agonist (proTGFα): not able to induce | phosphorylation of Akt/PKB at Ser-473 by agonist (Akt/PKB): markedly increased | cell surface content of endogenous proAR after agonist treatment (proAR; TPA 1 µM): reduced

heparin
LPA-induced ERK activation (ERK1/2): prevented | LPA-induced EGFR tyrosine phosphorylation (EGFR signal transactivation) (EGFR; LPA 10 μM, 3 min, SCC-9 (anti-AR also SCC-4, SCC-15, SCC-25)): completely blocked

CCCCCCCCCCCCCC(=O)O[C@@H]1[C@@H](C)[C@@]2(O)[C@@H](C=C(CO)C[C@]3(O)C(=O)C(C)=C[C@@H]23)[C@@H]2C(C)(C)[C@]12OC(C)=O [TPA]
proteolytic (ectodomain) cleavage of proHB-EGF by agonist (proHB-EGF): resulted in ectodomain cleavage | proteolytic (ectodomain) cleavage of proTGFα by agonist (proTGFα): resulted in ectodomain cleavage | cell surface content of endogenous proAR after agonist treatment (proAR; TPA 1 µM as printed): reduced

pertussis toxin [PTX]
LPA-induced ectodomain cleavage (shedding) of proAR (proAR; SCC-9 cells, batimastat 10 μM, PTX 100 ng/mL): partially inhibited

Timp-1: human Timp-1; ectopic expression by retroviral transduction
GPCR-induced EGFR tyrosine phosphorylation (EGFR transactivation signal) (EGFR): not | proteolytic activity of TACE in vitro (TACE): not

B1: Timp-3: tissue inhibitor of metalloprotease-3; ectopic expression by retroviral transduction (protein)
chain: CTCSPSHPQDAFCNSDIVIRAKVVGKKLVKEGPFGTLVYTIKQMKMYRGFTKMPHVQYIHTEASESLCGLKLEVNKYQYLLTGRVYDGKMYTGLCNFVERWDQLTLSQRKGLNYRYHLGCNCKIKSCYYLPCFVTSKNECLWTDMLSNFGYPGYQSKHYACIRQKGGYCSWYRGWAPPDKSIINATDP
modifications: left off: small tags and cut ends
notes: ectopic expression by retroviral transduction
GPCR-induced EGFR tyrosine phosphorylation (EGFR transactivation signal) (EGFR): inhibited | proteolytic activity of TACE in vitro (TACE): inhibited

Source: patent US7524495B2, “Inhibition of TACE or amphiregulin for the modulation of EGF receptor signal transactivation” (Max-Planck-Gesellschaft zur Foerderung der Wissenschaften …, priority 2003, dated 2009)
